Test system: isolated guinea pig trachea contracted by leukotriene C4 or D4 (SRS-A)
Test: Antagonism of leukotriene C4 or D4 induced contractions of isolated guinea pig trachea (SRS-A antagonist test)
Format: cell-based
Conditions: inhibition of contraction induced by 8×10^-9 M LTD4 or LTC4, isolated guinea pig tracheal strip, indomethacin 5×10^-6 M present
Protocol: Male Hartley guinea pigs weighing 300-500 g are killed and exsanguinated. The trachea is immediately resected, cleaned of adhering connective tissue and cut into a spiral strip measuring approximately 3 to 5 mm ×20 to 25 mm. The strip is mounted in a 10 ml jacketed tissue bath by tying one end to a tissue hook and the opposite end to a Grass FT03C force-displacement transducer connected to an 8-channel Beckman Polygraph for recording contractile or relaxant responses. The tissue is bathed in modified Krebs' solution (37.5° C.) of the following composition (mM): NaCl, 119; KCl, 4.6; CaCl2, 1.8; MgCl2, 0.5; NaHCO3, 24.9; NaH2 PO4, 1.0; glucose, 11.1. Indomethacin, a cyclooxygenase inhibitor, is also present in a concentration of 5×10^-6 M. The tissue baths are constantly aerated with 95% O2 and 5% CO2. Tissues are placed under a passive tension of 2 g and allowed a 50 minute equilibration period before beginning experiments. This technique is standard for studying the effects of drugs on airway smooth muscle (Krell, R. D., J. Pharmacol. Exp. Ther. 211: 436, 1979; Kneussel, M. P. and Richardson, J. B., J. Appl. Physiol. 45: 307, 1978; Fleisch, J. H. and Calkins, P. J., J. Appl. Physiol. 41: 62, 1976).
Tissues are set up in groups of eight--four are used as time/vehicle controls and the remaining four for experimental compounds. No fewer than 4 tissues are used for each test compound. All tissues are exposed to 8×10^-9 M LTD4, following the 50 minute equilibration period, and the response recorded. This concentration of LTD4 is that which produces a contraction equal to about 70-80% of the maximal effect of the agonist in this tissue. The LTD4 is washed out for 20-25 minutes and the procedure repeated twice to insure that reproducible responses are being obtained with LTD4. LTC4, at a concentration of 8×10^-9 M, may be substituted for LTD4 in the same procedure.
Once tissue reproducibility has been established test compounds are added to four baths following the […] washout period. After a 10 minute incubation with test compound or vehicle 8×10^-9 M LT's are added and the response recorded. Percent inhibition by the test compound or percent change in vehicle controls is calculated, for each tissue, according to the following equation: % inhibition=100 multiplied by (mg tension increase of preceding response minus mg tension increase in presence of compound) divided by mg tension increase of preceding response. The means of the percent changes for vehicle controls and test compound are calculated and evaluated for significant differences by Students' t-test for unpaired data. Tissues exposed to agents were retested for responsiveness to LTD4 or C4 following a 25 minute washout period. […]

| Compound | activity as an SRS-A antagonist |
| --- | --- |
| CCCc1c(OCc2ccc(OCC(=O)O)cc2)ccc(C(C)=O)c1O [Example 7, 4-(4-Acetyl-3-hydroxy-2-propylphenoxy)methylphenoxyacetic acid] | Particularly active |
| CCCc1c(OCc2ccc(/C=C/C(=O)O)cc2)ccc(C(C)=O)c1O [Example 16, 4-(4-Acetyl-3-hydroxy-2-propylphenoxy)methylcinnamic acid] | Particularly active |
| CCCc1c(OCc2ccc(C=CC(=O)O)cc2OC)ccc(C(C)=O)c1O [Example 22, 3-Methoxy-4-(4-acetyl-3-hydroxy-2-propylphenoxy)methylcinnamic acid] | Particularly active |
| CCCc1c(OCc2ccc(C(=O)O)cc2OC)ccc(C(C)=O)c1O [Example 4, 3-Methoxy-4-(4-acetyl-3-hydroxy-2-propylphenoxy)methylbenzoic acid] | Particularly active |

From patent US4499299A, “Pharmaceutically active phenylcarboxylic acid derivatives” (ICI Americas Inc., priority 1981, dated 1985)
